# Data reported in patent publication US9468627B2, “Slow-release formulations of 5-hydroxytryptophan as an adjunct to pro-serotonergic therapies” (Duke University, priority 2010, dated 2016).
# Entries after “also recorded” stand apart in the source; their conditions may differ.
# Assays:
# [1] = HPLC pilot stability of 5-HTP in water; type: physicochemical; details: H2O at RT, HPLC pilot experiments
# [2] = Shindo et al. 1977; cited from earlier work
# [3] = cited from earlier work
# [4] = immediate-release oral 5-HTP; cited from earlier work
# [5] = Side-effect and toxicity observation (body weight, drinking, diarrhea, 5-HT syndrome-like behaviors)
# Description: Tph2 R439H mice (˜25 g) were treated for >3 wks with a saturating dose of FLX (155 mg/L drinking water, ˜20 mg/kg/day). Thereafter Alzet 2001 minipumps (1 μl delivered/hr) containing a 5-HTP solution (100 mg/ml, ˜100 mg/kg/day) or only vehicle was implanted using isoflurane anesthesia, allowing for swift awakening, and the mice monitored for signs of 5-HT syndrome hourly for 8 hrs and at 24 hrs. Splaying (0=absent, 1=present, 2=severe), head twitch (#/min) and signs of hyperventilation (0=absent, 1=present, 2=severe) was scored. Body weights—a general index of toxicity—were followed for 2 days prior to and 5 days after pump implantation.
# METHODS: Mice on >2 w FLX (155 mg/L water, ˜20 mg/kg/d) were implanted with Alzet 2001 minipumps with vehicle (50% DMSO) or 100 mg/ml 5-HTP yielding a hourly (daily) dose of ˜4.2(100 mg)/kg for a ˜25 g mouse. Side-effect parameters were assessed between 30 min and 8 h following pump implantation under brief isoflurane anesthesia (day 1) and then daily (day 2-4). […] Diarrhea: Mice where placed individually in a cage with filter paper and the diarrhea level scored, 0-3. Tremor and splaying: Scored in home cage from 5 min videos. Temperature: Recorded by digital rectal temperature probe in lightly restrained mice. […] Statistics: Genotypes were analyses separately, with 2way RM-ANOVA or t-test as appropriate, and in the former case followed by Bonferroni post-hoc test.
# Side-effects were assessed after the AM dose, day 1-4. Diarrhea: Mice were placed individually in a cage with filter paper and the diarrhea level scored, 0-3, 0-15 min after injection. Tremor, splaying and head-twitch: Scored in home cage from 5 min videos, 25-30 min after injection. Temperature: Recorded by digital rectal temperature probe in lightly restrained mice 30 min after injection. […] Statistics: Genotypes were analyzed separately, with 2way RM-ANOVA or t-test where appropriate, and in the former case followed by Bonferroni post-hoc test.
# METHODS: 5-HTP (2 mg/L) was dissolved in (1 mg/L) saccharin-H2O, administered in blackened bottles and changed twice weekly. […] Body weights and drinking per cage was followed throughout and 5-HTP consumed estimated here from.
# [6] = system: extracellular serotonin (5-HTExt); experiment: 5-HT microdialysis (5-HTExt); type: in vivo, mice
# Description: Mice were anesthetized by ketamine/xylazine (100 and 10 mg kg^−1, respectively, in saline, i.p) and a guide cannula (CMA7, CMA Microdialysis, Chelmsford, Mass., USA) was stereotactically implanted into the frontal cortex (AP: 2.3 mm, ML: 0.3 mm, DV: 0.7 mm), hippocampus (AP: −3.3 mm, ML: 3.0 mm, DV: 1.5 mm) or lateral ventricle (AP: 0.3 mm; ML: 0.9 mm; DV: 2.0 mm) according to the atlas by Franklin and Paxinos (see, e.g., Franklin, K. and Paxinos, G. The Mouse Brain in Stereotaxic Coordinates. Academic Press: San Diego, 1997) and fixed in place with two anchor screws (CMA) and carboxylate dental cement (CMA). Operated mice were singly housed, treated with antibiotics (1.2 mg sulfamethoxazole ml^−1 and 0.24 mg trimethoprim ml^−1) in the drinking water and allowed to recover 48-96 h post-surgery.
# The microdialysis probe was inserted into the guide cannula approximately 16 h before the start of sample collection to allow for the stabilization of 5-HTExt levels. […] Dialysates were analyzed off-line by high-performance liquid chromatography-electrochemical detection (HPLC-EC) for 5-HT, 5-HIAA, 3,4-dihydroxyphenylacetic acid and homovanillic acid, or by the SymDAQ HPLC-tandem-mass spectrometry technology for simultaneous determination of monoamines and amino acids.
# METHODS: 5-HT Microdialysis 5-HTP SR. […] 5-HTExt in dialysates was determined by HPLC-EC. […]
smiles,measurement,setting,value
"N[C@@H](Cc1c[nH]c2ccc(O)cc12)C(=O)O [5-HTP, 5-hydroxytryptophan]",stability in H2O,[1],stable for weeks
same,first-pass metabolism in the intestine,[2],~50%
same,antidepressant effect (HAMD) at endpoint,"[3]; Alino et al.: 30 inpatients, nialamid 300 mg + 5-HTP 300 mg, two weeks, double-blind",significantly better than nialamide alone
same,antidepressant effect (HAMD) versus clomipramine + placebo,"[3]; Nardini et al.: 26 inpatients, clomipramine 50 mg + 5-HTP 300 mg, four weeks, double-blind",5-HTP enhanced clomipramines effect
same,patients going into remission,"[3]; van Hiele: 99 chronic treatment resistant out-patients, mostly on TCAs, add-on 5-HTP ~200 mg + carbidopa, open label",Forty-three
same,side effects,"[3]; van Hiele: add-on 5-HTP ~200 mg + carbidopa, severity greatly decreased with enteric coated capsules","nausea, vomiting and diarrhea"
same,patients improved,"[3]; van Praag: 7 chronic treatment resistant out-patients, clomipramine 50 mg + 5-HTP ~2-400 mg + PDI MK 486",Four
same,T1/2,[4],2 to 3 h
same,Tmax,[4],1 to 2 h
same,drinking,[5]; 5-HTP 2 mg/ml and 4 mg/ml in drinking water,Decreased drinking
same,body weight,[5]; 5-HTP 4 mg/ml in drinking water,Body weight decrease
same,5-HT syndrome-like behavior,"[5]; acute 5-HTP bolus 80 mg/kg i.p., add-on to existing FLX ≈18 mg/kg/day",resulted in 5-HT syndrome-like behavior; also recorded: causes 5-HT syndrome; also recorded: Serotonin syndrome-like behavior was observed
same,"diarrhea, malaise, gastrointestinal side effects",[5]; bolus injection 5-HTP 120 mg/kg i.p.,caused gastrointestinal side effects; also recorded: caused diarrhea and obvious malaise
same,"diarrhea, malaise, gastrointestinal side effects",[5]; continuous 5-HTP in drinking water 4 mg/ml,No diarrhea and no obvious malaise; also recorded: did not result in gastrointestinal side effects
same,drinking,"[5]; higher 5-HTP concentrations in drinking water, in pilots",inhibited drinking
same,"toxicity (weights, head twitches, diarrhea)","[5]; oral 5-HTP ≈200 mg/kg/day, no carbidopa, add-on to existing fluoxetine ≈18 mg/kg/day",No indication of toxicity; also recorded: not toxic and does not result in side effects
CCCN(CCC)C1CCc2cccc(O)c2C1 (stereo not shown) [8-OH-DPAT],decrease of 5-HTExt,[6]; 8-OH-DPAT 1 mg/kg i.p.,approximately 50%
"CNCCC(Oc1ccc(C(F)(F)F)cc1)c1ccccc1 (stereo not shown) [FLX, fluoxetine]",effect of FLX on 5-HTP-induced diarrhea (peri-rectal fecal smearing),"[5]; FLX ≈18 mg/kg/day, 5-HTP bolus 80 mg/kg i.p., not rigorously tested",seems to decrease diarrhea induced by 5-HTP; also recorded: appeared to lessen 5-HTP-induced diarrhea
same,5-HTExt response to chronic FLX,"[6]; wild-type mice, FLX ≈18 mg/kg/day",robust increase
